Laboratory results: patent US5968940A, “Retinoids and methods of use of same” (priority 1996, dated 1999)
pEC50: −log10 of the molar value.

Assays:
[1] = system: Human promyelocytic leukemia HL-60 cells; test: Cell differentiation of HL-60 cells, nitroblue tetrazolium (NBT) reduction / morphology; type: cell-based
Description: Human promyelocytic leukemia HL-60 cells were cultured in RPMI-1640 medium supplemented by 10% heat-inactivated calf serum and 100 U/ml of penicillin plus 100 μg/ml of streptomycin. The flasks containing cells and medium were incubated in an incubator with 5% CO2 at 37° C. Log phase cells were seeded into the medium at a concentration of 1.2×10^5to 1.4×10^5 cells per ml and cultured in flasks containing 5 ml of medium. Each group consisted of three flasks. Different concentrations of coumarin-retinoids were added. At intervals following the addition of coumarin-retinoids to the cultures, a small portion of cells was removed and live cells were counted under a light microscope using a dye-exclusionmethod with trypan blue. Cell differentiation was judged in terms of morphology and nitroblue tetrazolium (NBT) reduction.
For a determination of NBT reducing activity, a portion of the coumarin-retinoid-treated cells was removed at intervals following treatment and centrifuged. After centrifugation, 0.5 ml of 0.1% NBT (containing 100 ng TPA) was added to each tube. The contents of the test tubes were then incubated for 1 hour at 37° C. Cell smears were prepared from the cell sediment and stained using the Wright-Giemsa technique. For each smear prepared, 200 cells were isolated for examination under a light microscope with an oil immersion lens. Cells stained with blue-black granules were considered NBT-positive cells. The 50% differentiation or effective concentration (ED50 or EC50) is shown in terms of molar (M) concentration of the […] tested.
For a determination of cell morphology, a cell smear was prepared at intervals following treatment of cells for each coumarin-retinoid concentration group using the Wright-Giemsa stain technique. Stained cells were counted and classified under a light microscope with an oil immersion lens. After treatment with coumarin-retinoids, the morphological development of HL-60 cells proceeded toward mature granulocytes. This development was manifested by decreased cell volume; a lower nuclei to cytoplasm ratio; smaller or missing nuclei; concentration of chromatin; and the appearance of a certain proportion of intermediate and late granuloblasts (progranulocytes), elongated rod granulocytes, and granulocytes with branched nuclei.
(§1) The protocols of Examples 14 and 21 were used, for the NBT and MTT assays, respectively.

HL-60 cells = test: MTT assay, inhibition of HL-60 cells; type: cell-based, human; conditions: Homo sapiens; HL-60, Table 15
Description: Human cancer cell lines (KB, A2780, MCF-7, HL-60, A549) were used. For a monolayer culture, 0.5 ml of trypsin solution ([…]) was added to the flasks for digestion. Microtiter plates (96 well) were used for the cell culture and 200 μl of cell suspension (1200 tumor cells) were placed in each well and incubated at 37° C. for 24 hours. Following the addition of the test compound, the control and treated flasks were placed in a CO2 incubator for 5 day culture. For the MTT assay, 200 μl of MTT solution (5 mg in 10 ml of phosphate buffer) plus the medium were added and incubated for another 4 hours. Following incubation, the supernatant was discarded and 200 μl of DMSO was added to each well. With a mild agitation the OD values were determined by the MR 700 Elisa at 570 nm (reference wavelength was 450 nm). The ED50 of the compound and tumor cell survival rate [formula] as percent inhibition were calculated.
as §1

fetus absorption in mice = test: Effect on fetus absorption in mice; type: in vivo
Description: (§2) Female mice were examined by vaginal smear the morning after being caged with male mice, and if sperm or a vaginal plug was discovered, then the mice were determined to be pregnant. The retinoids were administered at the dosage indicated starting on the seventh day of pregnancy and continued once a day for the next ten days. On the 20th day after the female mice were determined to be pregnant, they were sacrificed by cervical dislocation. Both sides of the uterus were checked and the number of living embryos, dead embryos, and absorbed embryos were counted. The living embryos were further examined for bone abnormalities.

chondrosarcoma = test: Growth of chondrosarcoma in rats; type: in vivo; conditions: for Body Weight final: in g (unit assumed)
Description: Transplantable chondrosarcomas obtained from Dr. Trown, Hoffman--La Roche Institute of Molecular Biology and Wistar rats obtained from the Breeding Center of Experimental Animals, Chinese Academy of Medical Sciences were used. According to the routine transplantation protocol as described in Cancer Treatment Reports 60(11):1647-1653 (1976) where the small pieces of chondrosarcoma tumor were implanted subcutaneously in the right inguinal region of rats using a trocar. Tumor-bearing rats were randomized to a control group and a treated group. Each group consisted of ten rats. […] Sixty days after transplantation, the rats were sacrificed and the tumor weight was determined. The inhibition rate was calculated according to the following formula: [formula]

[2] = system: bone abnormalities in mouse fetus; test: Bone abnormalities in mouse fetus; type: in vivo
Description: as §2
After the embryos became transparent, they were dissected and their skeletons were checked by observation under a microscope.

SMILES	NBT (+) % ([1]; 10^-5 M) [%]	NBT (+) % ([1]; 10^-6 M) [%]	NBT (+) % ([1]; 10^-7 M) [%]	NBT (+) % ([1]; 10^-8 M) [%]	other results
CCOC(=O)c1cc2c(OC(=O)/C=C(C)/C=C/C=C(C)/C=C/C3=C(C)CCCC3(C)C)cc(OC(=O)/C=C(C)/C=C/C=C(C)/C=C/C3=C(C)CCCC3(C)C)cc2oc1=O [Compound I-21]	94	80	41	17	
CC1=C(/C=C/C(C)=C/C=C/C(C)=C/C(=O)Oc2cc(OC(=O)/C=C(C)/C=C/C=C(C)/C=C/C3=C(C)CCCC3(C)C)c3c(C)cc(=O)oc3c2)C(C)(C)CCC1 [Compound I-33, 4-methyl-5,7-diretinoyloxy-coumarin]					pEC50 (HL-60 cells): 5.49
CC1=C(/C=C/C(C)=C/C=C/C(C)=C/C(=O)Nc2ncnc3c2ncn3C(=O)/C=C(C)/C=C/C=C(C)/C=C/C2=C(C)CCCC2(C)C)C(C)(C)CCC1 [II-A]					Absorbed Number (fetus absorption in mice; 20 mg/kg, implanted number 141, 12 pregnant mice): 10; Absorbed Number (fetus absorption in mice; 40 mg/kg, implanted number 181, 15 pregnant mice): 17; Animals final (chondrosarcoma; 2 mg/kg × 10, initial 10): 9; Body Weight final (chondrosarcoma; 2 mg/kg × 10, initial 74.1): 130.6; Inhibition rate (%) (chondrosarcoma; 5 mg/kg × 10 (Table 14)): 62.6%; Tumor Weight (chondrosarcoma; 5 mg/kg × 10 (Table 14)): 4.0 grams; Animals final (chondrosarcoma; 5 mg/kg × 10, initial 10 (Table 14)): 9; Body Weight final (chondrosarcoma; 5 mg/kg × 10, initial 71.7 (Table 14)): 129.2
CC1=C(/C=C/C(C)=C/C=C/C(C)=C/C(=O)Oc2cc(=O)oc3ccc(C)cc23)C(C)(C)CCC1 [Compound I-35, 4-retinoyloxy-6-methyl-coumarin]					pEC50 (HL-60 cells): 5.59
CCc1cc2c(C)cc(=O)oc2cc1OC(=O)/C=C(C)/C=C/C=C(C)/C=C/C1=C(C)CCCC1(C)C [Compound I-31, 4-methyl-6-ethyl-7-retinoyloxy-coumarin]					pEC50 (HL-60 cells): < 5.00
CCCCCCc1cc2c(C)cc(=O)oc2cc1OC(=O)/C=C(C)/C=C/C=C(C)/C=C/C1=C(C)CCCC1(C)C [Compound I-34, 4-methyl-6-hexyl-7-retinoyloxy-coumarin]					pEC50 (HL-60 cells): < 5.00
CCOC(=O)c1cc(OC(=O)/C=C(C)/C=C/C=C(C)/C=C/C2=C(C)CCCC2(C)C)cc2oc(=O)c(C(C)=O)cc12 [Compound I-11, 3-acetyl-5-ethoxycarbyl-7-retinoyloxy-coumarin]	72	49	8		NBT (+) % ([1]; 10^-4 M): 77%
CCOC(=O)c1cc2cc(Cl)c(OC(=O)/C=C(C)/C=C/C=C(C)/C=C/C3=C(C)CCCC3(C)C)cc2oc1=O [Compound I-18]	44	8			
CC1=C(/C=C/C(C)=C/C=C/C(C)=C/C(=O)Oc2cc3oc(=O)c(C(N)=O)cc3cc2Cl)C(C)(C)CCC1 [Compound I-27]	88	80	17		
CCOC(=O)c1cc2c(C(=O)O)cc(OC(=O)/C=C(C)/C=C/C=C(C)/C=C/C3=C(C)CCCC3(C)C)cc2oc1=O [Compound I-19]	84	5			NBT (+) % ([1]; 10^-4 M): 92%
CC1=C(/C=C/C(C)=C/C=C/C(C)=C/C(=O)Oc2cc(C(=O)O)c3cc(C(N)=O)c(=O)oc3c2)C(C)(C)CCC1 [Compound I-26]	97	91	53	34	
CC(=O)c1cc2c(OC(=O)/C=C(C)/C=C/C=C(C)/C=C/C3=C(C)CCCC3(C)C)c(C(=O)O)ccc2oc1=O [Compound I-8]	98	69	55	34	
CC(=O)c1cc2ccc(OC(=O)/C=C(C)/C=C/C=C(C)/C=C/C3=C(C)CCCC3(C)C)c(OC(=O)/C=C(C)/C=C/C=C(C)/C=C/C3=C(C)CCCC3(C)C)c2oc1=O [Compound I-9]	96	88	55	31	Delayed Calcification, Occipital delay/fetus number ([2]; 20 mg/kg): 0/75; Delayed Calcification, Sternum delay/fetus number ([2]; 20 mg/kg): 0/75; Delayed Calcification, Occipital delay/fetus number ([2]; 40 mg/kg): 3/77; Delayed Calcification, Sternum delay/fetus number ([2]; 40 mg/kg): 2/77; Fetus Absorption, absorbed number/implanted number (fetus absorption in mice; 20 mg/kg once a day from day 7 of pregnancy): 0/113; Fetus Absorption, absorbed number/implanted number (fetus absorption in mice; 40 mg/kg once a day from day 7 of pregnancy): 0/119
CCCCCCCCCCCCOC(=O)c1cc(OC(=O)/C=C(C)/C=C/C=C(C)/C=C/C2=C(C)CCCC2(C)C)c(OC(=O)/C=C(C)/C=C/C=C(C)/C=C/C2=C(C)CCCC2(C)C)c2oc(=O)c(C(=O)OCC)cc12 [Compound I-12]	82	47	30	0	NBT (+) % ([1]; 10^-9 M): 0%
CC(=O)c1cc2c(C(=O)O)cc(OC(=O)/C=C(C)/C=C/C=C(C)/C=C/C3=C(C)CCCC3(C)C)cc2oc1=O [Compound I-4, 3-acetyl-5-carboxy-7-retinoyloxy coumarin]	92	84	73	15	
CCOC(=O)c1cc2ccc(OC(=O)/C=C(C)/C=C/C=C(C)/C=C/C3=C(C)CCCC3(C)C)c(C)c2oc1=O [Compound I-15]	93	84	46	12	
CCOC(=O)c1cc2ccc(OC(=O)/C=C(C)/C=C/C=C(C)/C=C/C3=C(C)CCCC3(C)C)cc2oc1=O [Compound I-17]	84	54	2		
CC(=O)c1cc2c(COC(=O)/C=C(C)/C=C/C=C(C)/C=C/C3=C(C)CCCC3(C)C)cc(OC(=O)/C=C(C)/C=C/C=C(C)/C=C/C3=C(C)CCCC3(C)C)cc2oc1=O [Compound I-7]	85	65	12		
CC(=O)c1cc2c(C)cc(OC(=O)/C=C(C)/C=C/C=C(C)/C=C/C3=C(C)CCCC3(C)C)cc2oc1=O [Compound I-2]	84	38	2		
CC(=O)c1cc2ccc(OC(=O)/C=C(C)/C=C/C=C(C)/C=C/C3=C(C)CCCC3(C)C)c(C)c2oc1=O [Compound I-3]	88	77	12		
